The record followed here is publication PMC13358776, “Discovery of Two GSK3β Inhibitors from Sophora flavescens Ait. using Structure-based Virtual Screening and Bioactivity Evaluation” (Current Computer-Aided Drug Design, 2024).

For this test, the target named is T1, GSK3β (Homo sapiens, UniProt P49841).
T1 construct: gene GSK3B
Put plainly: Kinase-Glo Plus luminescent enzymatic assay, […] ATP. Format: biochemical.

T1 sequence (P49841 whole entry): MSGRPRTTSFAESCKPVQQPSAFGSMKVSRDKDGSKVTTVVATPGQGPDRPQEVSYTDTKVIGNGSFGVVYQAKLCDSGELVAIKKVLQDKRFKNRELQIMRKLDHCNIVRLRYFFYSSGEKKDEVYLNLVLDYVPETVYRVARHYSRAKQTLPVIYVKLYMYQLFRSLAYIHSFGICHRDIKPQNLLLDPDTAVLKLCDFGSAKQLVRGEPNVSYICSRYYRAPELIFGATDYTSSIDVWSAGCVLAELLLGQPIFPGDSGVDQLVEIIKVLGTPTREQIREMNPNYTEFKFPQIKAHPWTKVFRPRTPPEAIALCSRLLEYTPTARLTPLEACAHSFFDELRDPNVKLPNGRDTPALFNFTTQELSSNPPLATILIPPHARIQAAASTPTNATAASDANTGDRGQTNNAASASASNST

Turning to kushenol F [MOL006617], the half-maximal inhibitory concentration (IC50) worked out at 4.96 ± 1.29 µM.
